Assays:
ACHN = test: NCI 60 cell one-dose screening (SRB); format: cell-based; conditions: Homo sapiens, Renal Cancer, single dose 10 µM, 48 h, read-out: Percentage of cellular growth inhibition
Summary of the method: (§1)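 Inhibition percentages derive from SRB-stained cell mass: growth relative to no-drug wells, computed as (Ti−Tz)/(C−Tz)×100, or (Ti−Tz)/Tz×100 when Ti<Tz, then subtracted from 100. Compound level was 10 µM for 48 h in RPMI 1640 medium with 5% serum.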

DU-145 = test: NCI 60 cell one-dose screening (SRB); format: cell-based; conditions: Homo sapiens; DU-145, Prostate Cancer; single dose 10 µM, 48 h; read-out: Percentage of cellular growth inhibition
Summary of the method: as §1

HCC-2998 = test: NCI 60 cell one-dose screening (SRB); format: cell-based; conditions: Homo sapiens; HCC-2998, Colon Cancer; single dose 10 µM, 48 h; read-out: Percentage of cellular growth inhibition
Summary of the method: as §1

HCT-116 = test: NCI 60 cell one-dose screening (SRB); format: cell-based; conditions: Homo sapiens; HCT-116, Colon Cancer; single dose 10 µM, 48 h; read-out: Percentage of cellular growth inhibition
Summary of the method: as §1

M14 = test: NCI 60 cell one-dose screening (SRB); format: cell-based; conditions: Homo sapiens; M14, Melanoma; single dose 10 µM, 48 h; read-out: Percentage of cellular growth inhibition
Summary of the method: as §1

MCF7 = test: NCI 60 cell one-dose screening (SRB); format: cell-based; conditions: Homo sapiens; MCF7, Breast Cancer; single dose 10 µM, 48 h; read-out: Percentage of cellular growth inhibition
Summary of the method: as §1

MDA-MB-231/ATCC = test: NCI 60 cell one-dose screening (SRB); format: cell-based; conditions: Homo sapiens, Breast Cancer, single dose 10 µM, 48 h, read-out: Percentage of cellular growth inhibition
Summary of the method: as §1

NCI-H23 = test: NCI 60 cell one-dose screening (SRB); format: cell-based; conditions: Homo sapiens; NCI-H23, Non-Small Cell Lung Cancer; single dose 10 µM, 48 h; read-out: Percentage of cellular growth inhibition
Summary of the method: as §1

NCI-H460 = test: NCI 60 cell one-dose screening (SRB); format: cell-based; conditions: Homo sapiens; NCI-H460, Non-Small Cell Lung Cancer; single dose 10 µM, 48 h; read-out: Percentage of cellular growth inhibition
Summary of the method: as §1

NCI-H522 = test: NCI 60 cell one-dose screening (SRB); format: cell-based; conditions: Homo sapiens; NCI-H522, Non-Small Cell Lung Cancer; single dose 10 µM, 48 h; read-out: Percentage of cellular growth inhibition
Summary of the method: as §1

OVCAR-3 = test: NCI 60 cell one-dose screening (SRB); format: cell-based; conditions: Homo sapiens; OVCAR-3, Ovarian Cancer; single dose 10 µM, 48 h; read-out: Percentage of cellular growth inhibition
Summary of the method: as §1

SF-295 = test: NCI 60 cell one-dose screening (SRB); format: cell-based; conditions: Homo sapiens; SF-295, CNS Cancer; single dose 10 µM, 48 h; read-out: Percentage of cellular growth inhibition
Summary of the method: as §1

SK-MEL-2 = test: NCI 60 cell one-dose screening (SRB); format: cell-based; conditions: Homo sapiens; SK-MEL-2, Melanoma; single dose 10 µM, 48 h; read-out: Percentage of cellular growth inhibition
Summary of the method: as §1

SW-620 = test: NCI 60 cell one-dose screening (SRB); format: cell-based; conditions: Homo sapiens; SW-620, Colon Cancer; single dose 10 µM, 48 h; read-out: Percentage of cellular growth inhibition
Summary of the method: as §1

T-47D = test: NCI 60 cell one-dose screening (SRB); format: cell-based; conditions: Homo sapiens, T47D, 48 h, Breast Cancer, single dose 10 µM, read-out: Percentage of cellular growth inhibition
Summary of the method: as §1

U251 = test: NCI 60 cell one-dose screening (SRB); format: cell-based; conditions: Homo sapiens, U-251; U251, CNS Cancer; single dose 10 µM, 48 h; read-out: Percentage of cellular growth inhibition
Summary of the method: as §1

UACC-62 = test: NCI 60 cell one-dose screening (SRB); format: cell-based; conditions: Homo sapiens; UACC-62, Melanoma; single dose 10 µM, 48 h; read-out: Percentage of cellular growth inhibition
Summary of the method: as §1

[1] = system: Breast T47D cancer cell line; test: In vitro inhibition concentration of breast T47D cancer cell line; format: cell-based; conditions: Homo sapiens
Description: Cells were seeded and treated with a range of inhibitors concentration 39–10,000 nM after 24 h relative to DMSO. […]

LOX IMVI = test: NCI 60 cell one-dose screening (SRB); format: cell-based; conditions: Homo sapiens, Melanoma, single dose 10 µM, 48 h, read-out: Percentage of cellular growth inhibition
Summary of the method: as §1

SR = test: NCI 60 cell one-dose screening (SRB); format: cell-based; conditions: Homo sapiens, Leukemia, single dose 10 µM, 48 h, read-out: Percentage of cellular growth inhibition
Summary of the method: as §1

SMILES | inhibition at 10 µM (ACHN) | inhibition at 10 µM (DU-145) | inhibition at 10 µM (HCC-2998) | inhibition at 10 µM (HCT-116) | inhibition at 10 µM (M14) | inhibition at 10 µM (MCF7) | inhibition at 10 µM (MDA-MB-231/ATCC) | inhibition at 10 µM (NCI-H23) | inhibition at 10 µM (NCI-H460) | inhibition at 10 µM (NCI-H522) | inhibition at 10 µM (OVCAR-3) | inhibition at 10 µM (SF-295) | inhibition at 10 µM (SK-MEL-2) | inhibition at 10 µM (SW-620) | inhibition at 10 µM (T-47D) | inhibition at 10 µM (U251) | inhibition at 10 µM (UACC-62) | IC50 ([1]; 48 h) | IC50 ([1]; 96 h) | melting point | further results
Cc1nc(Nc2cccc(Nc3nc(C)c(N=Nc4ccccc4)s3)c2)sc1N=Nc1ccccc1 [5a, N^1,N^3-bis(4-methyl-5-(phenyldiazenyl)thiazol-2-yl)benzene-1,3-diamine] | 38.3% | 16.6% | -0.4% | 14.1% | -7.6% | 52.4% | 35.1% | 14.7% | 3.2% | 30.7% | 26% | 13.6% | -6.7% | 9.4% | 48% | 30.1% | 30.9% | 10.4 µM | 4.35 µM | 115 to 116 °C | 
c1ccc(-c2csc(Nc3cccc(Nc4nc(-c5ccccc5)cs4)c3)n2)cc1 [6a, N^1,N^3-bis(4-phenylthiazol-2-yl)benzene-1,3-diamine] | 63.8% | 41.1% | 64.5% | 60% | 52.2% | 84.4% | 52% | 63.2% | 73.1% | 88.6% | 46.8% | 62.4% | 35.1% | 33.8% |  | 48.8% | 49.7% | 6.58 µM | 1.78 µM | 92 to 94 °C | 
NC(=S)Nc1cccc(NC(N)=S)c1 [compound 2, 1,1′-(1,3-phenylene)bis(thiourea)] | 3.7% | -1.2% | -16.9% | -7% | -25.1% | 8.3% | 10.3% | 1.5% | -9.7% | 2.8% | 11.5% | 9.8% | -11.7% | -6.9% | 13.2% | 11.2% | 29.5% |  |  |  | 
S=C(Nc1ccccc1)Nc1cccc(NC(=S)Nc2ccccc2)c1 [compound 7, 1,1′-(1,3-phenylene)bis(3-phenylthiourea)] | -3.8% | -10.2% | -11.5% | -11.8% | -19.6% | 8.5% | -0.2% | -5.7% | -16.5% | -6.3% | -6.1% | 1.2% | -35.3% | -16.8% | 6.3% | -1.4% | 5.8% |  |  |  | 
Fc1ccc(-c2cs/c(=N\c3ccccc3)n2-c2cccc(-n3c(-c4ccc(F)cc4)cs/c3=N\c3ccccc3)c2)cc1 [8b, N,N’-(3,3’-(1,3-phenylene)bis(4–(4-fluorophenyl)thiazole-3(3H)-yl-2(3H)-ylidene))dianiline] | 2.3% | 17.1% | 12.1% | 16.7% | 0.4% | 42.9% | 8.9% |  | 37.5% | 41.6% | 4.1% | -18.8% | 22.2% | 45.1% | 51% | 28.1% | 41% | 9.8 µM | 2.61 µM |  | inhibition at 10 µM (LOX IMVI): 23.9%; inhibition at 10 µM (SR): 36.1%
Cc1csc(Nc2cccc(Nc3nc(C)cs3)c2)n1 [3a, N^1,N^3-bis(4-methylthiazol-2-yl)benzene-1,3-diamine] | 20.7% | 10.2% | -4.2% | 4.8% | -7.3% | 21.9% | 21.2% | 21.2% | 1.6% | 39.3% |  | 9.5% |  | -3.6% | 36.8% | 3.5% | 22.3% | 7.82 µM | 2.86 µM | 137 to 139 °C | inhibition at 10 µM (LOX IMVI): 25.5%; inhibition at 10 µM (SR): 17.3%
Fc1ccc(-c2csc(Nc3cccc(Nc4nc(-c5ccc(F)cc5)cs4)c3)n2)cc1 [6b, N^1,N^3-bis(4–(4-fluorophenyl)thiazol-2-yl)benzene-1,3-diamine] | 48.2% | 32.3% | 64.8% | 42.3% | 33.2% | 75.3% | 35.4% |  | 59.6% | 93.8% | 42.5% | 9.6% | 65.3% | 29.7% |  | 37.3% | 42.9% | 5.92 µM | 1.61 µM | 80 to 83 °C | inhibition at 10 µM (LOX IMVI): 60.7%; inhibition at 10 µM (SR): 48.6%
